Measurements published in patent US11213546B2, “Methods to mobilize tissue resident cells for adoptive t cell therapy” (Emory University, priority 2017, dated 2022).

Tested on: circulating CD8+ TSP cells and CD34+ SP+ HSCs
Conditions: human peripheral blood
From the text: Peripheral blood mononuclear cells (PBMCs) from healthy donors were isolated from buffy coats purchased from New York Blood Center. Gut T cells were obtained from uninvolved intestine in patients undergoing surgery for diverticular disease or gut biopsies. Bone marrow aspirates were obtained from patients with cancer undergoing diagnostic bone marrow biopsies. In some patients, blood samples were collected before and after stem cell mobilization protocol with plerixafor. […] The cells were then washed in ice-cold Hoechst wash buffer and analyzed with BD LSR-II containing UV laser.

c1cc(CN2CCCNCCNCCCNCC2)ccc1CN1CCCNCCNCCCNCC1 [plerixafor, Plerixafor]
circulating CD8+ TSP cells (baseline vs after mobilization, within 24 hours of injection, n=6): marked increase
mobilization of CD34+ SP+ HSCs (concurrent with the CD8+ TSP increase): mobilization
